Columns and labels:
[1] = target: T1, Clr (Homo sapiens, UniProt P00736); experiment: Anti-Cl esterase activity, Clr (AAME hydrolysis); assay type: biochemical; conditions: hydrolysis of AAME; read-out: Anti-Cl activity, Clr (ID50)
T1 sequence (P00736 464-705 limits assumed): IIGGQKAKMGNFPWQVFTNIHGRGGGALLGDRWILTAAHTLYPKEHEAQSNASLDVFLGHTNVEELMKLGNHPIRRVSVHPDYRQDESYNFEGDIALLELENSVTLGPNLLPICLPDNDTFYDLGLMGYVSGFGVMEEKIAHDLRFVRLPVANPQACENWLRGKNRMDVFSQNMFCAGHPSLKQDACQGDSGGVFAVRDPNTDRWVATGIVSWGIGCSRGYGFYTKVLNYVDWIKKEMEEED
T1 sequence (P00736 18-463 limits assumed): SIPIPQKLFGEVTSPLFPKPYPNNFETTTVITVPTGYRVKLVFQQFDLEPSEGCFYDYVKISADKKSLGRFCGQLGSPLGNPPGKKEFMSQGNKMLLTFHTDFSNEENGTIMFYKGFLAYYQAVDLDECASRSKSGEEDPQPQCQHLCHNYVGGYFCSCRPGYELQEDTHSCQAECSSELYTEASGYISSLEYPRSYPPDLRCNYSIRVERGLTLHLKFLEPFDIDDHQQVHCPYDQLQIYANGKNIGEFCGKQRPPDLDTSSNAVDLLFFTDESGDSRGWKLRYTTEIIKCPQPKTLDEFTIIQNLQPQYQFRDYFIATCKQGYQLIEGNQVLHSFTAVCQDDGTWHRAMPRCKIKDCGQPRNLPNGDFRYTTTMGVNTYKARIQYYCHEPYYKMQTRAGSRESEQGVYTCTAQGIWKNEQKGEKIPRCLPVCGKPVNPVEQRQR
Description: The anti-Cl esterase ([…]) activity was determined according to the method of Okamura et al. [K. Okamura, M. Muramatsu and B. Fujii, Biochem. Biophys.

[2] = target: T2, Trypsin (Bos taurus, UniProt P00760); experiment: Anti-trypsin activity (inhibition of TAME hydrolysis); assay type: biochemical; conditions: read-out: ID50, trypsin
T2 sequence (P00760 24-246): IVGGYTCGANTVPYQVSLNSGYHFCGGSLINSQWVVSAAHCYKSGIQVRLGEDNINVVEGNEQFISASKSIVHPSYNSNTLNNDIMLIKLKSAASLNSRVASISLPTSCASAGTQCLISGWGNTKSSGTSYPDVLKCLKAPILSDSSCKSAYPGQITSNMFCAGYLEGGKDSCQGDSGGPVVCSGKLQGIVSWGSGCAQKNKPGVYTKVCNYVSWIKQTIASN
Summary of the method: (§1)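 Inhibition of enzymatic TAME (tosylarginine methyl ester) hydrolysis, per Muramatsu et al. Values are ID50, the molar concentration of compound inhibiting 50% of each enzyme's TAME-hydrolysing activity.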

[3] = test system: complement; experiment: Inhibition of complement mediated hemolysis; assay type: cell-based
[4] = target: Plasmin (Homo sapiens, UniProt P00747); experiment: Anti-plasmin activity (inhibition of TAME hydrolysis); assay type: biochemical; conditions: read-out: ID50, plasmin
Summary of the method: as §1

[5] = test system: Kallikrein; experiment: Anti-kallikrein activity (inhibition of TAME hydrolysis); assay type: biochemical; conditions: read-out: ID50, kallikrein
Summary of the method: as §1

[6] = target: T3, Cls (Homo sapiens, UniProt P09871); experiment: Anti-Cl esterase activity, Cls (ATEE hydrolysis); assay type: biochemical; conditions: hydrolysis of ATEE; read-out: Anti-Cl activity, Cls (50% inhibition)
T3 sequence (P09871 438-688 limits assumed): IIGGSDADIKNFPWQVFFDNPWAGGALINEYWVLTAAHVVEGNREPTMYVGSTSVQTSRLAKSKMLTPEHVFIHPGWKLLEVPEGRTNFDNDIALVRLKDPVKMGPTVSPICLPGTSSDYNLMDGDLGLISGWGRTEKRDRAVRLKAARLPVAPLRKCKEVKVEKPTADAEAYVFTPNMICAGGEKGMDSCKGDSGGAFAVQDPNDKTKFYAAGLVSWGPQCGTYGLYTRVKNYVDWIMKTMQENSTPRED
T3 sequence (P09871 16-437 limits assumed): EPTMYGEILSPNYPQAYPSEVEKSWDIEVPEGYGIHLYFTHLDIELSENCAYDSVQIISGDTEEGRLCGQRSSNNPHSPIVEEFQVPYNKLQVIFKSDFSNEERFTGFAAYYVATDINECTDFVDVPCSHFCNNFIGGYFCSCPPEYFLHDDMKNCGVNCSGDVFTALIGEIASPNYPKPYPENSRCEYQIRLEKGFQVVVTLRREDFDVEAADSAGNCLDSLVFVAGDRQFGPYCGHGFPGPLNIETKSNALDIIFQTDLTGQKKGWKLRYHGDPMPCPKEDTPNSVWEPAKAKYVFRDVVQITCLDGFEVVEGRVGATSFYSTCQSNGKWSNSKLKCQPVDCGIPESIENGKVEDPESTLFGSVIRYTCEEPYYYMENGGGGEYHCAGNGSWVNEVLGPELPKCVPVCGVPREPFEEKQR
Description: The anti-Cl esterase (Clr, Cls) activity was determined according to the method of Okamura et al. [K. Okamura, M. Muramatsu and B. Fujii, Biochem. Biophys. […] The figures in Table 2 have the following meanings:
Cls: Molar concentration of the test compound which inhibits 50% of the ability of Cls to hydrolyse ATEE (acetyltyrosin ethyl ester).

[7] = target: Thrombin (Homo sapiens, UniProt P00734); experiment: biochemical; conditions: TAME hydrolysis; read-out: ID50, thrombin
[8] = test system: Masugi nephritis; experiment: Therapeutic experiment on Masugi's nephritis (protein content of urine); assay type: in vivo; conditions: rats; for Percentage inhibition (decrease in protein content of urine): methanesulfonate, oral 100 mg/kg twice a day, eight days
Description: The protein content of the animal's urine is used as the parameter for the progress of Masugi nephritis. […] From the result, it may be said that the compound of this invention having a Cl-esterase inhibitory activity is useful as a remedy for the glomerulonephritis and is also useful as a remedy for autoimmune diseases inclusive of glomerulonephritis.
Experimental nephritis were induced in rats by intravenous injection of nephrotoxin prepared according to the method of Shibata et al. ["Experimental Immunoallergy.", p. 664 (1971), Bunkodo, Tokyo]. Each member of the medicine administered group had been orally administered with methanesulfonate of Compound No. 69 at a dose rate of 100 mg/kg body weight, twice a day, for eight consecutive days. On the second day from the beginning of medicine administration, nephrotoxin was intravenously administered. The effectiveness was evaluated by determining the difference in protein content of urine between the nephritic group (control group) and the medicine administered group on the 6th day (5th day after the administration of nephrotoxin) and 9th day from the beginning of medicine administration.
The percentage inhibition indicates the degree of decrease in protein content of urine of the medicine administered group as compared with the control group.

[9] = Toxicity, median lethal dose (LD50); conditions: in vivo

Plasmin, sequence (P00747 581-810 limits assumed, species assumed): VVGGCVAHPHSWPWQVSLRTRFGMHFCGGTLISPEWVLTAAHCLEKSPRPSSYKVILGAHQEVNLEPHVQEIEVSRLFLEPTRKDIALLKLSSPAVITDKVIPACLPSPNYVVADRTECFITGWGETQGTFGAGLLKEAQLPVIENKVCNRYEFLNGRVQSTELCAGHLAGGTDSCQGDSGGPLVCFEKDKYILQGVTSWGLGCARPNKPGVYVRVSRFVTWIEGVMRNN
Plasmin, sequence (P00747 97-580 limits assumed, species assumed): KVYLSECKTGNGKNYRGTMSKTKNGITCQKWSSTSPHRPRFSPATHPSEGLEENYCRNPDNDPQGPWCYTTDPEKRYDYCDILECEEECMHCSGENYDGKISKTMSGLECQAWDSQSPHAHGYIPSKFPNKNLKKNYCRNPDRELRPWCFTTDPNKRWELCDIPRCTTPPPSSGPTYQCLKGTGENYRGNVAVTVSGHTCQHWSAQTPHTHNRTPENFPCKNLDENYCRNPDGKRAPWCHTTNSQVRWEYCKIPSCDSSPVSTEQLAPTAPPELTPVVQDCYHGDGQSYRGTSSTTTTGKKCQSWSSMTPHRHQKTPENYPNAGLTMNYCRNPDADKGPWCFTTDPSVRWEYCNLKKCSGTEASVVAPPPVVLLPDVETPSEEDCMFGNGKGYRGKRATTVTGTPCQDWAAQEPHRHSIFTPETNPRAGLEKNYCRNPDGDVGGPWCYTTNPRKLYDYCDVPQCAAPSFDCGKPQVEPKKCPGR

| Compound | IC50 [1] [µM] | IC50 [2] [µM] | Inhibition of complement mediated hemolysis (%) ([3]; compound at 1 × 10^-4) | Inhibition of complement mediated hemolysis (%) ([3]; compound at 1 × 10^-5) | Inhibition of complement mediated hemolysis (%) ([3]; compound at 1 × 10^-6) | Inhibition of complement mediated hemolysis (%) ([3]; compound at 1 × 10^-7) | IC50 [4] [µM] | IC50 [5] [µM] | IC50 [6] [µM] | IC50 [7] [µM] | Percentage inhibition (decrease in protein content of urine) ([8]; 5th day) [%] | Percentage inhibition (decrease in protein content of urine) ([8]; 8th day) [%] | protein content of urine, Masugi nephritis ([8]; result in words) | LD50 ([9]; ip) [mg/kg] | LD50 ([9]; po) [mg/kg] |
| --- | --- | --- | --- | --- | --- | --- | --- | --- | --- | --- | --- | --- | --- | --- | --- |
| COc1cc(C(=N)N)ccc1OC(=O)c1ccc(CN)cc1 [Compound 58, 4-amidino-2-methoxyphenyl 4-aminomethylbenzoate] | > 10 | 8 | 93.4 | 20.0 | 3.0 | 0 | 8 | 2 | 4 | > 10 |  |  |  |  |  |
| COC(=O)c1cc(C(=N)N)ccc1OC(=O)c1ccc(CNC(=O)OCc2ccccc2)cc1 [Compound 59] | 2 | 0.5 | 100 | 100 | 76.0 | 15.6 | 0.07 | 0.7 | 0.3 | 4 |  |  |  |  |  |
| COC(=O)c1cc(C(=N)N)ccc1OC(=O)c1ccc(CN)cc1 [Compound 60] | 3 | 1 | 100 | 100 | 89.8 | 44.4 | 4 | 2 | 0.8 | > 10 |  |  |  |  |  |
| N=C(N)c1ccc(OC(=O)c2ccc(CNC(=O)OCc3ccccc3)cc2)c([N+](=O)[O-])c1 [Compound 61] | 0.4 | 0.2 | 98.6 | 100 | 98.0 | 76.1 | 0.2 | 1 | 0.3 | 0.4 |  |  |  |  |  |
| N=C(N)c1ccc(OC(=O)c2ccc(CN)cc2)c([N+](=O)[O-])c1 [Compound 62] | 0.5 | 0.5 | 100 | 100 | 100 | 95.4 | 3 | 2 | 0.6 | 500 |  |  |  |  |  |
| CN(C)c1ccc(C(=O)Oc2ccc(C(=N)N)cc2C(=O)c2ccccc2)cc1 [Compound 66, 4-amidino-2-benzoylphenyl 4-dimethylaminobenzoate] | 3 | 0.01 | 99.1 | 96.4 | 41.7 | 0 | 0.4 | 0.2 | 0.04 | 0.2 |  |  |  |  |  |
| N=C(N)Nc1ccc(C(=O)Oc2ccc(C(=N)N)cc2C(=O)c2ccccc2)cc1 [Compound 69, 4-amidino-2-benzoylphenyl 4-guanidinobenzoate] | 2 | 0.08 | 100 | 99.6 | 86.5 | 7.2 | 2 | 0.4 | 0.4 | 0.2 | 81 | 39 | distinctly decreased the protein content of urine | 192 | 1700 |
| N=C(N)Nc1ccc(C(=O)Oc2ccc(C(=N)N)cc2[N+](=O)[O-])cc1 [Compound 70, 4-amidino-2-nitrophenyl 4-guanidinobenzoate] | 3 | 0.03 | 100 | 100 | 97.0 | 46.1 | 0.7 | 40 | 0.2 | 0.5 |  |  |  | 200 | 2500 |
| COc1cc(C(=N)N)ccc1OC(=O)c1ccc(NC(=N)N)cc1 [Compound 71] | 4 | 0.04 | 90.6 | 35.3 | 2.7 | 9.0 | 2 | 30 | 0.7 | 2 |  |  |  |  |  |
